pIC50: −log10 of the molar value.

The target of the first test is recombinant mTOR (FLAG-tagged, residues 1362-2549) (Homo sapiens, UniProt P42345). The test can be described thus: In vitro mTOR kinase assay (Test (a), AlphaScreen). Type of test: biochemical. Conditions: ATP 20 μM, read-out: Test (a): IC50 versus mTOR kinase. A digest of the protocol: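 AlphaScreen read-out: a phospho-T389 p70 S6K antibody on acceptor beads captures the phosphorylated biotin-peptide on donor beads, with signal loss indicating inhibition.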
Chain of recombinant mTOR (FLAG-tagged, residues 1362-2549) (P42345 1362-2549): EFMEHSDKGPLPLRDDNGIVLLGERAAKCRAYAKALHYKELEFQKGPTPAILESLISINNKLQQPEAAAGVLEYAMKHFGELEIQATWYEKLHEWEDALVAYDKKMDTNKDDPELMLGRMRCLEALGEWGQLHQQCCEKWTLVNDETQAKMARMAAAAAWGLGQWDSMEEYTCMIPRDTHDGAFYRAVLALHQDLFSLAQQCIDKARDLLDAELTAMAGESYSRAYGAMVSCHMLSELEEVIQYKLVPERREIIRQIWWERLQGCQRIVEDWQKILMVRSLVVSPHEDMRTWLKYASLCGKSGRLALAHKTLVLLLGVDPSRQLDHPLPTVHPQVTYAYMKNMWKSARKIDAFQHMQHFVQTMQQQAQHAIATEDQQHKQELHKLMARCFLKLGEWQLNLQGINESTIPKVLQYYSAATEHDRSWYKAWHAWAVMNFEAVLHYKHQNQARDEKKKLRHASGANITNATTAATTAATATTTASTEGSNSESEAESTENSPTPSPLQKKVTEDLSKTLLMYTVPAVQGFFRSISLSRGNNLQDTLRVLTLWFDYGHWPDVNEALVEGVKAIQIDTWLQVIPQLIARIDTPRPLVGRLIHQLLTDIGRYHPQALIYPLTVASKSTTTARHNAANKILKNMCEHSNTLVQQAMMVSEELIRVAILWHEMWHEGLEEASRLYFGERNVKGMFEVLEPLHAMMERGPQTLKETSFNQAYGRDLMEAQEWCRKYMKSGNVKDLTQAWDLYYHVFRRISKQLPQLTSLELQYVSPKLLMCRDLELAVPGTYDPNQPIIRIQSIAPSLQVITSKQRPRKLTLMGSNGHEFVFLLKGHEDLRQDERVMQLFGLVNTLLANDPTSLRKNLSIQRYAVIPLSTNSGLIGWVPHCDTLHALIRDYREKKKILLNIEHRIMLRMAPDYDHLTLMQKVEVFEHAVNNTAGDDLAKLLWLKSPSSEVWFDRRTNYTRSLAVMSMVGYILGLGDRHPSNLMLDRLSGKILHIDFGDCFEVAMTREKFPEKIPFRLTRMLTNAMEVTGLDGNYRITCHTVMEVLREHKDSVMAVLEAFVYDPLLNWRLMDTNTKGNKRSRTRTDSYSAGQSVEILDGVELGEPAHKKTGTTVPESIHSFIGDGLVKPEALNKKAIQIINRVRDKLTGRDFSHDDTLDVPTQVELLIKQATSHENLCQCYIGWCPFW
`C[C@H]1COCCN1c1cc(CN2CCN(C)CC2)nc(-c2ccc(NC(=O)NC3CC3)cc2)n1` [Example 49b, 3-cyclopropyl-1-[4-[4-[(3S)-3-methylmorpholin-4-yl]-6-[(4-methylpiperazin-1-yl)methyl]pyrimidin-2-yl]phenyl]urea]: the pIC50 was 7.85. Still for that read-out and setting: with `Cc1ccc(NC(=O)Nc2ccc(-c3nc(CS(C)(=O)=O)cc(N4CCOCC4)n3)cc2)cc1` [Example 7a, 1-(4-methylphenyl)-3-[4-[4-(methylsulfonylmethyl)-6-morpholin-4-yl-pyrimidin-2-yl]phenyl]urea] the figure was 6.55; with `C[C@H]1COCCN1c1cc(C(C)(C)S(C)(=O)=O)nc(-c2ccc(NC(=O)Nc3ccccc3)cc2)n1` [Example 24w, 1-[4-[4-[(3S)-3-methylmorpholin-4-yl]-6-(2-methylsulfonylpropan-2-yl)pyrimidin-2-yl]phenyl]-3-phenyl-urea], 7.47; with `CS(=O)(=O)Cc1cc(N2CCOCC2)nc(-c2ccc(NC(=O)NCCO)cc2)n1` [Example 45k, 3-(2-hydroxyethyl)-1-[4-[4-(methylsulfonylmethyl)-6-morpholin-4-yl-pyrimidin-2-yl]phenyl]urea], 7.31.

Consider `CS(=O)(=O)Cc1cc(N2CCOCC2)nc(-c2ccc(NC(=O)NCCN3CCNC3=O)cc2)n1` [Example 45e, 1-[4-[4-(methylsulfonylmethyl)-6-morpholin-4-yl-pyrimidin-2-yl]phenyl]-3-[2-(2-oxoimidazolidin-1-yl)ethyl]urea], for which the pIC50 was 6.25. Still for that read-out and setting: the result for `C[C@H]1COCCN1c1cc(CO)nc(-c2ccc(NC(=O)NC3CC3)cc2)n1` [Example 42, 3-Cyclopropyl-1-[4-[4-(hydroxymethyl)-6-[(3S)-3-methylmorpholin-4-yl]pyrimidin-2-yl]phenyl]urea] reads 6.72; that for `CCNC(=O)Nc1ccc(-c2nc(CS(=O)(=O)c3ccccc3)cc(N3CCOC[C@@H]3C)n2)cc1` [Example 20f, 3-[4-[4-(benzenesulfonylmethyl)-6-[(3S)-3-methylmorpholin-4-yl]pyrimidin-2-yl]phenyl]-1-ethyl-urea], 7.46. For the compound `C[C@H]1COCCN1c1cc(CS(=O)(=O)c2ccccc2)nc(-c2ccc(NC(=O)NC3CCN(C)CC3)cc2)n1` [Example 20i, 1-[4-[4-(benzenesulfonylmethyl)-6-[(3S)-3-methylmorpholin-4-yl]pyrimidin-2-yl]phenyl]-3-(1-methyl-4-piperidyl)urea], the pIC50 is 6.15. On the same count and under the same terms, with `CN(CCO)C(=O)Nc1ccc(-c2nc(CS(C)(=O)=O)cc(N3CCOCC3)n2)cc1` [Example 45, 1-(2-Hydroxyethyl)-1-methyl-3-[4-[4-(methylsulfonylmethyl)-6-morpholin-4-yl-pyrimidin-2-yl]phenyl]urea] the figure was 6.18; with `COCc1cc(N2CCOC[C@@H]2C)nc(-c2ccc(NC(=O)Nc3ccccc3)cc2)n1` [Example 32, 1-[4-[4-(Methoxymethyl)-6-[(3S)-3-methylmorpholin-4-yl]pyrimidin-2-yl]phenyl]-3-phenyl-urea], 8.21; with `CS(=O)(=O)Cc1cc(N2CCOCC2)nc(-c2ccc(NC(=O)NCCc3cccs3)cc2)n1` [Example 7q, 1-[4-[4-(methylsulfonylmethyl)-6-morpholin-4-yl-pyrimidin-2-yl]phenyl]-3-(2-thiophen-2-ylethyl)urea], 5.77.

For the compound `Cc1cc(CNC(=O)Nc2ccc(-c3nc(CS(C)(=O)=O)cc(N4CCOC[C@@H]4C)n3)cc2)no1` [Example 24h, 3-[4-[4-[(3S)-3-methylmorpholin-4-yl]-6-(methylsulfonylmethyl)pyrimidin-2-yl]phenyl]-1-[(5-methyl-1,2-oxazol-3-yl)methyl]urea], the pIC50 was 5.36. Regarding `C[C@H]1COCCN1C(=O)Nc1ccc(-c2nc(CS(C)(=O)=O)cc(N3CCOC[C@@H]3C)n2)cc1` [Example 35n, (3S)-3-methyl-N-[4-[4-[(3S)-3-methylmorpholin-4-yl]-6-(methylsulfonylmethyl)pyrimidin-2-yl]phenyl]morpholine-4-carboxamide], the pIC50 was 5.96. The same measure, in the same setting: the result for `C[C@H]1COCCN1c1cc(CS(C)(=O)=O)nc(-c2ccc(NC(=O)Nc3cc[nH]c(=O)c3)cc2)n1` [Example 22g, 1-[4-[4-[(3S)-3-methylmorpholin-4-yl]-6-(methylsulfonylmethyl)pyrimidin-2-yl]phenyl]-3-(2-oxo-1H-pyridin-4-yl)urea] reads 8.35; that for `CNC(=O)Nc1ccc(-c2nc(CS(C)(=O)=O)cc(N3CCOC[C@@H]3C)n2)cc1F` [Example 2e, 3-[2-fluoro-4-[4-[(3S)-3-methylmorpholin-4-yl]-6-(methylsulfonylmethyl)pyrimidin-2-yl]phenyl]-1-methyl-urea], 7.42. Still for that read-out and setting: the result for `C[C@H]1COCCN1c1cc(CS(C)(=O)=O)nc(-c2ccc(NC(=O)Nc3ccccc3)c(F)c2)n1` [Example 1g, 1-[2-fluoro-4-[4-[(3S)-3-methylmorpholin-4-yl]-6-(methylsulfonylmethyl)pyrimidin-2-yl]phenyl]-3-phenyl-urea] reads 6.02.

In the case of `CS(=O)(=O)Cc1cc(N2CCOCC2)nc(-c2ccc(NC(=O)Nc3ccc(Cl)cc3)cc2)n1` [Example 7b, 3-(4-chlorophenyl)-1-[4-[4-(methylsulfonylmethyl)-6-morpholin-4-yl-pyrimidin-2-yl]phenyl]urea], the pIC50 was 6.38. The same measure, in the same setting: with `CCNC(=O)Nc1ccc(-c2nc(CS(C)(=O)=O)cc(N3CCOC[C@@H]3C)n2)cc1Cl` [Example 8i, 1-[2-Chloro-4-[4-[(3S)-3-methylmorpholin-4-yl]-6-(methylsulfonylmethyl)pyrimidin-2-yl]phenyl]-3-ethyl-urea] the figure was 5.85.

A further test relates to phosphorylation of Serine 473 in Akt in MDA-MB-468 human breast adenocarcinoma cells. Kind of test: In vitro phospho-Ser473 Akt assay (Test (c)). Type of test: cell-based. Conditions: Homo sapiens, MDA-MB-468, 2 h, MDA-MB-468 cells, 2 hours incubation; read-out: Test (c): IC50 versus Serine 473 in Akt. The method, then:
(c) In Vitro Phospho-Ser473 Akt Assay
This assay determines the ability of test compounds to inhibit phosphorylation of Serine 473 in Akt as assessed using Acumen Explorer technology (Acumen Bioscience Limited), a plate reader that can be used to rapidly quantitate features of images generated by laser-scanning.
A MDA-MB-468 human breast adenocarcinoma cell line (LGC Promochem, Teddington, Middlesex, UK, Catalogue No. HTB-132) was routinely maintained at 37° C. with 5% CO2 up to a confluency of 70-90% in DMEM containing 10% heat-inactivated FCS and 1% L-glutamine.
For the assay, the cells were detached from the culture flask using ‘Accutase’ (Innovative Cell Technologies Inc., San Diego, Calif., USA; Catalogue No. AT104) using standard tissue culture methods and resuspended in media to give 1.7×10^5 cells per mL. Aliquots (90 μl) were seeded into each of the inner 60 wells of a black Packard 96 well plate (PerkinElmer, Boston, Mass., USA; Catalogue No. 6005182) to give a density of 15000 cells per well. Aliquots (90 μl) of culture media were placed in the outer wells to prevent edge effects. The cells were incubated overnight at 37° C. with 5% CO2 to allow them to adhere.
On day 2, the cells were treated with test compounds and incubated for 2 hours at 37° C. with 5% CO2. Test compounds were prepared as 10 mM stock solutions in DMSO and serially diluted as required with growth media to give a range of concentrations that were 10-fold the required final test concentrations. Aliquots (10 μl) of each compound dilution were placed in a well (in triplicate) to give the final required concentrations. As a minimum response control, each plate contained wells having a final concentration of 100 μM LY294002 (Calbiochem, Beeston, UK, Catalogue No. 440202). As a maximum response control, wells contained 1% DMSO instead of test compound. Following incubation, the contents of the plates were fixed by treatment with a 1.6% aqueous formaldehyde solution (Sigma, Poole, Dorset, UK, Catalogue No. F1635) at room temperature for 1 hour.
All subsequent aspiration and wash steps were carried out using a Tecan 96 well plate washer (aspiration speed 10 mm/sec). The fixing solution was removed and the contents of the plates were washed with phosphate-buffered saline (PBS; 50 μl; Gibco, Catalogue No. 10010015). The contents of the plates were treated for 10 minutes at room temperature with an aliquot (50 μl) of a cell permeabilisation buffer consisting of a mixture of PBS and 0.5% Tween-20. The ‘permeabilisation’ buffer was removed and non-specific binding sites were blocked by treatment for 1 hour at room temperature of an aliquot (50 μl) of a blocking buffer consisting of 5% dried skimmed milk [‘Marvel’ (registered trade mark); Premier Beverages, Stafford, GB] in a mixture of PBS and 0.05% Tween-20. The ‘blocking’ buffer was removed and the cells were incubated for 1 hour at room temperature with rabbit anti phospho-Akt (Ser473) antibody solution (50 μl per well; Cell Signalling, Hitchin, Herts, U.K., Catalogue No 9277) that had been diluted 1:500 in ‘blocking’ buffer. Cells were washed three times in a mixture of PBS and 0.05% Tween-20. Subsequently, cells were incubated for 1 hour at room temperature with Alexafluor488 labelled goat anti-rabbit IgG (50 μl per well; Molecular Probes, Invitrogen Limited, Paisley, UK, Catalogue No. A11008) that had been diluted 1:500 in ‘blocking’ buffer. Cells were washed 3 times with a mixture of PBS and 0.05% Tween-20. An aliquot of PBS (50 μl) was added to each well and the plates were sealed with black plate sealers and the fluorescence signal was detected and analysed.
Fluorescence dose response data obtained with each compound were analysed and the degree of inhibition of Serine 473 in Akt was expressed as an IC50 value.
`C[C@H]1COCCN1c1cc(C(C)(C)S(=O)(=O)C2CC2)nc(-c2ccc(NC(=O)NC3CCC3)cc2)n1` [Example 57h, 3-cyclobutyl-1-[4-[4-(2-cyclopropylsulfonylpropan-2-yl)-6-[(3S)-3-methylmorpholin-4-yl]pyrimidin-2-yl]phenyl]urea]: the pIC50 was 7.18. Still for that read-out and setting: with `CCNC(=O)Nc1ccc(-c2nc(CS(=O)(=O)c3ccncc3)cc(N3CCOC[C@@H]3C)n2)cc1` [Example 48a, 3-ethyl-1-[4-[4-[(3S)-3-methylmorpholin-4-yl]-6-(pyridin-4-ylsulfonylmethyl)pyrimidin-2-yl]phenyl]urea] the figure was 6.60; with `CC(C)NC(=O)Nc1ccc(-c2nc(N3CCOC[C@@H]3C)cc(C(C)(C)S(=O)(=O)C(C)C)n2)cc1` [Example 60k, 1-[4-[4-[(3S)-3-methylmorpholin-4-yl]-6-(2-propan-2-ylsulfonyl-propan-2-yl)pyrimidin-2-yl]phenyl]-3-propan-2-yl-urea], 6.74; with `CC(=O)NCCS(=O)(=O)Cc1cc(N2CCOC[C@@H]2C)nc(-c2ccc(NC(=O)Nc3ccon3)cc2)n1` [Example 40, N-[2-[[6-[(3S)-3-methylmorpholin-4-yl]-2-[4-(1,2-oxazol-3-ylcarbamoylamino)phenyl]pyrimidin-4-yl]methylsulfonyl]ethyl]acetamide], 7.00. For the compound `C[C@H]1COCCN1c1cc(C(C)(C)S(C)(=O)=O)nc(-c2ccc(NC(=O)N3CCCC(O)C3)cc2)n1` (stereo partly drawn) [Example 24bd, 3-hydroxy-N-[4-[4-[(3S)-3-methylmorpholin-4-yl]-6-(2-methylsulfonylpropan-2-yl)pyrimidin-2-yl]phenyl]piperidine-1-carboxamide], the pIC50 was 5.49.

By pIC50 is commonly meant the IC50 on a negative log10 scale, so that one unit is a factor of ten.

The record behind these values is patent US7750003B2, “Compounds-943” (AstraZeneca AB, priority 2006, dated 2010).
